From paper PMC3066540, “Molecular characterization of O-methyltransferases involved in isoquinoline alkaloid biosynthesis in Coptis japonica” (Proceedings of the Japan Academy. Series B, Physical and …, 2010)
One block for each compound: values may come before it.

Experiments:
64′-OMT [1] = system: T1, 64′-OMT; test: [3H]methyl transfer assay, double-reciprocal plots with secondary replots; assay type: biochemical, Coptis japonica; settings: 30 °C
T1 construct: gene 6-OMT; pET-21d, no vector-derived peptides, E. coli BL21(DE3), purified; subunit ca. 40 kDa, native ca. 63 kDa, dimer

6-OMT = target: T2, 6-OMT (Coptis japonica, UniProt Q9LEL6); test: LC/MS product analysis; assay type: biochemical; settings: 1 mM acceptor, 1 mM AdoMet, pH 7.5, 30 °C; presumed 3'-O-methylation; crude E. coli lysate
T2 construct: full length, recombinant in E. coli, crude lysate; dimer
T2 sequence (Q9LEL6 whole entry): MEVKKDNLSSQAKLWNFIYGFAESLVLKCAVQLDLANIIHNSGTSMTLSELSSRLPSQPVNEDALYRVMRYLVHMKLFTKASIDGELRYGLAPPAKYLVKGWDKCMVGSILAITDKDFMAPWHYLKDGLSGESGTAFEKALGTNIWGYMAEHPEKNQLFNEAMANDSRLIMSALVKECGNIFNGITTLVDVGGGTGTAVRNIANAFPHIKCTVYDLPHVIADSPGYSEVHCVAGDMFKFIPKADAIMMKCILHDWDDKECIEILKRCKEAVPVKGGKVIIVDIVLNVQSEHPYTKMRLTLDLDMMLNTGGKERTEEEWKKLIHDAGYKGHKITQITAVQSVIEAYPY

64′-OMT [2] = target: T1, 64′-OMT; test: [3H]methyl transfer assay, inhibition kinetics; assay type: biochemical, Coptis japonica; settings: competitive with AdoMet; varied substrate AdoMet, methyl acceptor norlaudanosoline; 30 °C

Structure (SMILES): Oc1ccc(CC2NCCc3cc(O)c(O)cc32)cc1O (racemic) [(R,S)-norlaudanosoline]
Km (64′-OMT [1]; co-substrate [3H]AdoMet varied): 109 µM

Structure (SMILES): COc1cc2c(cc1O)[C@H](Cc1ccc(O)c(O)c1)N(C)CC2 [3′-hydroxy-N-methylcoclaurine]
LC/MS product analysis (6-OMT): 6-OMT showed a weak but evident peak that was distinct

Ki (64′-OMT [2]): 70 µM
Structure (SMILES): Nc1ncnc2c1ncn2[C@@H]1O[C@H](CSCC[C@H](N)C(=O)O)[C@@H](O)[C@H]1O [AdoHcy]

Km (64′-OMT [1]; co-substrate (R,S)-norlaudanosoline varied, labelled compound): 187 µM
Structure (SMILES): C[S+](CC[C@H](N)C(=O)O)C[C@H]1O[C@@H](n2cnc3c(N)ncnc32)[C@H](O)[C@@H]1O (stereo partly shown) [AdoMet]
